Test results: US9801832B2, “Pharmaceutical composition having synergistic action of direct catalase inhibitors and modulators of no metabolism or of extracellular superoxide anion production which lead to catalase destruction” (Universitaetsklinikum Freiburg, priority 2012, dated 2017)

Assays:
tumor cells [1] = settings: cited from earlier work
[2] = test system: MKN-45 gastric carcinoma cells; assay: Induction of apoptosis in MKN-45 gastric carcinoma cells (percentages of apoptotic cells); assay type: cell-based, human; settings: for induction of apoptosis / dependence of the induction of apoptosis on singlet oxygen: substance alone; for induction of apoptosis: 12 500 MKN-45 cells in 100 μl, 4-6.5 hours at 37° C.; for dependence of the induction of apoptosis on singlet oxygen: 2 mM histidine (singlet oxygen scavenger)
Experimental: 12 500 MKN-45 cells in 100 μl (duplicate batches) were treated with the given concentrations of salicylic acid or remained free from salicylic acid. After 10 minutes the given concentrations of cyanidine were added.
12 500 MKN-45 cells in 100 μl (duplicate batches) were treated with 0.1 μg/ml salicylic acid or remained free from salicylic acid (control). […] After 6.5 hours the percentages of apoptotic cells were determined in duplicate batches.
12 500 MKN-45 cells in 100 μl (duplicate batches) either received no additive (control), 2 mM of the singlet oxygen scavenger histidine or 25 μM Caspase-8 inhibitor. […] After another 15 minutes cyanidine was added in the given concentrations. After 6.5 hours of incubation at 37° C. the percentages of apoptotic cells were determined.
12 500 MKN-45 cells in 100 μl (duplicate batches) either received no additive (control), 2 mM of the singlet oxygen scavenger histidine or 25 μM Caspase-8 inhibitor. […] After 6.5 hours incubation at 37° C. the percentage of apoptotic cells was determined. […]
12 500 MKN-45 cells in 100 μl medium were incubated with increasing concentrations of the given active ingredients, in the presence or absence of 0.1 μg/ml salicylic acid for 6 hours and then, the percentages of the apoptotic cells were determined (repeated determination).

tumor cells [3] = settings: cited from earlier work; remark: listed apart in the source
thrombocytes = settings: cited from earlier work
Gumbus lymphoma cells = assay: Induction of apoptosis in Gumbus lymphoma cells (percentages of apoptotic cells); assay type: cell-based, human; settings: for dependence of the induction of apoptosis on singlet oxygen: 2 mM histidine (singlet oxygen scavenger); for dependence of the induction of apoptosis on singlet oxygen / ROS signal path of the induced apoptosis (inhibitor profile): Gumbus cells; for ROS signal path of the induced apoptosis (inhibitor profile): L-NAME, taurine, ABH
Experimental: 12 500 MKN-45 gastric carcinoma cells (A) or 25 000 Gumbus lymphoma cells (B) in 100 μl complete medium each either remained untreated (control) or received 2 mM histidine (singlet oxygen scavenger), 50 mM taurine (HOCl scavenger), or 2.4 mM L-NAME (NOS inhibitor). In Experiment A, additionally 10 mM mannitol (hydroxyl radical scavenger), 150 μM ABH (peroxidase inhibitor), 100 U/ml MnSOD (superoxide anion scavenger) and 25 μM FeTPPS (peroxynitrite decomposer) were used. Subsequently, the given concentrations of salicylic acid were added. After 5 hours (A) and 4 hours, respectively, of incubation at 37° C. the percentages of apoptotic cells were determined in duplicate batches according to the classical apoptosis features nuclear condensation, nuclear fragmentation, and membrane blebbing. Here, at least 200 cells were evaluated pre batch. […] Inhibitors: singlet oxygen scavenger histidine 2 mM; HOCl scavenger taurine 50 mM, NOS inhibitor L-NAME 2.4 mM, peroxidase inhibitor ABH 150 μM.

tumor cell catalase = target: T1, tumor cell catalase (Homo sapiens, UniProt P04040); assay: Catalase inhibition/inactivation in MKN-45 cells by challenge with exogenous peroxynitrite, NO donor or glucose oxidase; assay type: cell-based; parameters: endogenous in cells; host or cells: MKN-45 gastric carcinoma cells; settings: 200 μM peroxynitrite
T1 sequence (P04040 2-527 limits assumed): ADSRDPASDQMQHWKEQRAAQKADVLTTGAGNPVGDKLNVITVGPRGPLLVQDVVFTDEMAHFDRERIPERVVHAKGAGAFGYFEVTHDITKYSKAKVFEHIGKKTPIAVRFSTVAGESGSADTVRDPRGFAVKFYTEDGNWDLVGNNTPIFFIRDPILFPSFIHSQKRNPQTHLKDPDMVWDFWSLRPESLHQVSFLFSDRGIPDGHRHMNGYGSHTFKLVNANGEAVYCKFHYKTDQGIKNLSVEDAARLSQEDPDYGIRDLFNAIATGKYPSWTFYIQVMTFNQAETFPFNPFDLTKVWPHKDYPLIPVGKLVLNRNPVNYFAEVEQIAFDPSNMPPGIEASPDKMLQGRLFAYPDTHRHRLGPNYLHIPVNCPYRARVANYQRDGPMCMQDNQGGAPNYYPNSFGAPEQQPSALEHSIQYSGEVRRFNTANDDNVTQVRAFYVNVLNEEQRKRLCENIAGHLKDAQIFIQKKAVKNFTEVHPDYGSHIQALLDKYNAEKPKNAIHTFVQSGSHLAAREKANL
Experimental: Direct catalase inhibition with relevance to the induction of apoptosis in tumor cells can be determined by pre-incubating tumor cells at first in the presence of the singlet oxygen scavenger histidine (2 mM) with the substance to be tested in increasing concentration (between 10 and 30 minutes at 37° C.) and subsequently adding peroxynitrite in the concentration range between 10 and 200 μM. The tumor cells are protected from the apoptosis-triggering effect of peroxynitrite by their membranous catalase. An inhibition of the catalase partially or completely cancels this protection and in the presence of peroxynitrite leads to the induction of apoptosis. The presence of 2 mM histidine ensures that the measured induction of apoptosis is not a singlet oxygen-mediated inactivation of the catalase by destruction of its active center. Alternatively, instead of addition of histidine inhibition of the NADPH oxidase by 100 μM AEBSF may take place. With prevented superoxide anion production also no singlet oxygen formation in the test system is possible.
4000 MKN-45 cells per 100 μl in […] were treated with increasing concentrations of monoclonal antibodies against catalase “Anti-KAT” or Anti-EGFR. After 15 minutes either 200 μM peroxynitrite (“PON”), 0.5 mM DEA-NONOate (rapidly decomposing NO donor), or 2 mU/ml glucose oxidase (GOX) that continuously generates hydrogen peroxide were added. After another two hours at 37° C. the percentages of apoptotic cells were determined in duplicate batches.
The principle of identification is based on the fact that tumor cells (here MKN-45 gastric carcinoma cells) are protected from the apoptosis-triggering effect of exogenously added peroxynitrite by their membranous catalase. Addition of catalase inhibitors sensitizes the cells to the effect of exogenous peroxynitrite.
The experiment was performed in analogy to that described in FIG. 9 except that instead of Anti-KAT a monoclonal antibody against SOD was used. The cells were tested in two different densities, namely 4000 and 12 500 cells per 100 μl. The challenge to test the activity of catalase was carried out with 200 μM peroxynitrite, or 0.5 mM DEA NONOate or 2 mU/ml GOX.
Subsequently, 200 μM or no peroxynitrite was added. After 1.5 hours the percentages of apoptotic cells were determined in duplicate batches.
Subsequently, 200 μM or no peroxynitrite was added. After 1 hour the percentages of apoptotic cells were determined in duplicate batches.
12 500 MKN-45 cells in 100 μl medium received 100 μM AEBSF or no additive. After 15 minutes the given concentrations of cyanidine were added and the batches were incubated for 15 minutes at 37° C. Subsequently, 200 μM peroxynitrite (PON) were added or the batches were not treated with peroxynitrite (control). After 1 hour the percentages of apoptotic cells were determined in duplicate batches.
12 500 MKN-45 cells received no addition (control), or 2 mM histidine, or 100 μM AEBSF or 2.4 mM L-NAME immediately before the addition of the given concentrations of salicylic acid (“0 min”) or 20 minutes after addition of salicyl. 20 minutes after the addition of salicylic acid 200 μM peroxynitrite (PON) were added to all batches except the control batches. After another 2 hours the percentages of apoptotic cells were determined in duplicates.

## Nc1nc[nH]n1 [3-aminotriazole]
Tumor cells [1]
  sensitivity of tumor cells for ROS signaling-mediated apoptosis (autocrine and by interaction with non-transformed cells): become sensitive for these two processes

## Oc1ccc(C=Cc2cc(O)cc(O)c2)cc1 [resveratrol]
[2]; 0.1 μg/ml salicylic acid, MKN-45, 6 hours (FIGS. 22-25)
  synergistic interaction with salicylic acid in the induction of apoptosis: synergistically reacts
[2]
  induction of apoptosis: still does not lead to a significant induction of apoptosis
Tumor cells [3]
  superoxide anion production: leads to a dramatic increase of the superoxide anion production
thrombocytes; 6.25 and 12.5 μg/ml
  minor increase of the superoxide anion production: statistically insignificant
thrombocytes
  production of superoxide anions, hydrogen peroxide, and singlet oxygen: leads to a reduction of the production of superoxide anions, hydrogen peroxide, and singlet oxygen

## O=C(O)c1ccccc1O [salicylic acid]
[2]
  synergism with cyanidine in the induction of apoptosis: Synergism is achieved
  synergism with taxol in the induction of apoptosis: Synergism is achieved
  induction of apoptosis: induces ROS-dependent induction of apoptosis
[2]; 0.15 ng/ml cyanidine alone, 0.08 μg/ml salicylic acid alone, MKN-45 (FIG. 16)
  induction of apoptosis, substance alone at the concentration of the combination: remained ineffective
[2]; 0.1 μg/ml, MKN-45 (FIG. 18)
  induction of apoptosis, alone at 0.1 μg/ml: ineffective in itself
[2]; MKN-45, L-NAME, FeTPPS, taurine, ABH
  ROS signal path of the induced apoptosis (inhibitor profile): In the low concentration range of the salicylic acid preferably the NO/peroxynitrite signal path runs, with higher concentrations the HOCl path predominates
[2]; administered alone, MKN-45, 6 hours (FIG. 16)
  concentration up to which almost no effect on apoptosis is shown: up to 0.32 μg/ml
[2]; MKN-45
  dependence of the induction of apoptosis on singlet oxygen: does not depend on singlet oxygen
Gumbus lymphoma cells
  dependence of the induction of apoptosis on singlet oxygen: does not depend on singlet oxygen
  ROS signal path of the induced apoptosis (inhibitor profile): In the low concentration range of the salicylic acid preferably the NO/peroxynitrite signal path runs, with higher concentrations the HOCl path predominates
Gumbus lymphoma cells; substance alone, 25 000 Gumbus lymphoma cells in 100 μl, 4 hours at 37° C.
  induction of apoptosis: induces ROS-dependent induction of apoptosis
Tumor cell catalase; 6.25 ng/ml alone, MKN-45 (FIG. 21)
  catalase inactivation, alone at the chosen concentration: almost no catalase inactivation
Tumor cell catalase; 100 μM AEBSF, MKN-45
  catalase inhibition / sensitization to peroxynitrite with inhibited superoxide anion synthesis: independent of the superoxide anion synthesis
Tumor cell catalase; MKN-45
  inhibition of tumor cell catalase (sensitization to exogenous peroxynitrite): inhibits the catalase of the tumor cells
Tumor cell catalase; 2 mM histidine, 100 μM AEBSF or 2.4 mM L-NAME, MKN-45 (FIGS. 14, 15)
  requirement of singlet oxygen, superoxide anions and NO for catalase inhibition/inactivation: independent of superoxide anions, NO and singlet oxygen

## CC(=O)O[C@H]1C(=O)[C@@]2(C)[C@H]([C@H](OC(=O)c3ccccc3)[C@]3(O)C[C@H](OC(=O)[C@H](O)[C@@H](NC(=O)c4ccccc4)c4ccccc4)C(C)=C1C3(C)C)[C@]1(OC(C)=O)CO[C@@H]1C[C@@H]2O [taxol]
[2]; alone, 25 μM Caspase-8 inhibitor, MKN-45, 6.5 hours (FIG. 19)
  concentration up to which a necessary involvement of Caspase-8 can be seen: up to 370 ng/ml
[2]; MKN-45
  dependence of the induction of apoptosis on singlet oxygen: depends on singlet oxygen
Gumbus lymphoma cells
  dependence of the induction of apoptosis on singlet oxygen: caused by a fast singlet oxygen-dependent step that inactivates catalase within the first hour
  ROS signal path of the induced apoptosis (inhibitor profile): at low concentrations of taxol is via the NO/peroxynitrite path, at higher concentrations via the HOCl path
Tumor cell catalase; 6.25 ng/ml salicylic acid, MKN-45, 1.5 hours (FIG. 21)
  synergistic effect with salicylic acid on catalase inactivation: synergistic effect on the catalase inactivation
